These results are taken from patent US20160243059A1 (UNIST Academy-Industry Research Corporation, priority 2015, published 2016).

Entries after “also recorded” stand apart in the source; their conditions may differ.

The target in series [1] is T1, Aβ40 (Homo sapiens, UniProt P05067).
T1 construct: Aβ40 and Aβ42 were purchased from AnaSpec (Fremont, Calif., USA); purchased AnaSpec
The series is described as follows: Mass spectrometry and IM-MS of Aβ40-ligand complexes. The format is binding. Here is the method:
The resulting solutions were allowed to react for 0, 2, 4, 8, and 24 hours at a temperature of 37° C. The samples were directly injected into the mass spectrometer at a flow rate of […]. ESI interface was operated in positive-ion mode; spray voltage was set at 4.5 kV with capillary temperature at 300° C. and capillary exit voltage at 101 V. Mass spectra were taken in the range of m/z 50 to 500.
All ion mobility-mass spectrometry (IM-MS) experiments were carried out on a Synapt G2 (Waters, Milford, Mass., USA). Samples were ionized using a nano-electrospray source operated in positive ion mode. MS instrumentation was operated at a backing pressure of 2.7 mbar and a sample cone voltage of 40 V. Data were analyzed using MassLynx 4.1 and DriftScope 2.0 (Waters, Milford, Mass., USA). Collision cross-section (CCS) measurements were calibrated externally using a database of known protein, and protein complex CCS values in helium. Lyophilized Aβ40 peptides (AnaSpec, Fremont, Calif., USA) were prepared to a stock concentration of 25 μM in 1 mM ammonium acetate (pH 7.0). […] After the reaction, all samples were lyophilized overnight prior to re-suspension of the samples in hexafluoro-2-propanol (HFIP, Sigma-Aldrich, St Louis, Mo., USA)([Aβ40]=50 μM) and sonicated under pulse settings for 5 minutes. The samples were diluted 50%, to a final Aβ40 concentration of 25 μM, using 1 mM ammonium acetate (0.5 mM final concentration) immediately prior to mass analysis.

In series [2] the test system is amyloid plaques. The series can be described thus: Histopathological evaluation of amyloid deposition load in 5×FAD mice. The series is classed as in vivo, mouse. The note with it: 1 mg/kg/day intraperitoneal, 30 days. An excerpt: (§1) 5×FAD mice were selected for this study since they develop early and severe phenotypes of AD and behavioral dysfunction.
The target of series [3] is T2, Cu(II)-loaded Aβ42 fibrils (Homo sapiens, UniProt P05067).
T2 construct: Aβ40 and Aβ42 were purchased from AnaSpec (Fremont, Calif., USA); purchased AnaSpec
The series can be described thus: Cu K-edge X-ray absorption spectroscopy. The note with it: DMPD 2 equivalents, 24 hours, anaerobic. On the procedure: Aβ42 was monomerized according to the methods previously described (Biochemistry 44, 5478-5487, 2005; J. Am. Chem. Soc. 126, 13534-13538, 2004), and fibrils of Aβ42 were grown according to protocols known in the art (Biochemistry, 47, 5006-5016, 2008). Following monomerizatino of fibrillization, all samples were treated under an anaerobic atmosphere (N2) in a COY anaerobic chamber (COY Laboratory, Grass Lake, Mich., USA).
Aβ42 was dissolved in a mixture of 10 mM of N-ethylmorpholine buffer (pH 7.4) and glycerol (used as a deicing agent) that were mixed at a ratio of 4:1, and then, an equivalent amount of CuCl2 was added thereto. Aβ42 monomers were maintained at 5° C., and all procedures performed rapidly to avoid aggregation. […]
Following the reaction with DMPD, the solutions were injected into Lucite sample holders with Kapton tape windows, and then, quickly frozen in liquid nitrogen. All data were recorded on beamline X-3b at the National Synchrotron Light Source (Brookhaven National Laboratories, Upton, N.Y., USA). […]
Data were collected as fluorescence spectra using a Canberra 31 element Ge solid-state detector with a 3 micron Ni filter placed between the sample and detector, and calibrated against a simultaneously collected spectrum of Cu-foil (first inflection point 8980.3 eV). […]

In series [4] the target is T3, Aβ40/Aβ42 aggregates (Homo sapiens, UniProt P05067).
T3 construct: Aβ40 and Aβ42 were purchased from AnaSpec (Fremont, Calif., USA); purchased AnaSpec
The series is described as follows: Breakdown of preformed Aβ aggregation (gel electrophoresis/Western blot, TEM). The note with it: regardless of presence or absence of metals. The format is biochemical. Here is the method: (§2) The peptide stock solution was diluted to a final concentration of 25 μM in Chelex-treated buffered solution containing [4-(2-hydroxyethyl)-1-piperazine ethane sulfonic acid; […]; pH 6.6 for Cu(II) samples; pH 7.4 for metal-free and Zn(II) samples] (HEPES) and NaCl ([…]).
(§3) The samples from studies on the inhibition of formation of Aβ aggregation and the breakdown of Aβ aggregation were analyzed by gel electrophoresis with Western blotting using an anti-Aβ antibody (6E10).
(§4) Each sample (10 μL) was separated on a 10-20% Tris-tricine gel (Invitrogen, Grand island, NY, USA), and the protein samples obtained therefrom were transferred onto a nitrocellulose membrane which was blocked with bovine serum albumin (BSA, 3% w/v, Sigma-Aldrich, St. Louis, Mo., USA) in Tris-buffered saline containing 0.1% Tween-20 (TBS-T; 1.00 mM Tris base, pH 8.0, 1.50 mM NaCl) at room temperature for 2 hours.
(§5) Afterwards, the membranes were incubated with a primary antibody (6E10, Covance, Princeton, N.J., USA; 1:2000) in a solution of 2% w/v BSA (in TBS-T) overnight at 4° C. After washing with TBS-T (three times, each for 10 minutes), the horseradish peroxidase-conjugated goat antimouse secondary antibody (1:5000; Cayman Chemical Company, Ann Arbor, Mich., USA) in 2% w/v BSA (in TBS-T) was added for 1 hour at room temperature. […]

Series [5] concerns Aβ40/Aβ42 aggregates. The series is described as above. The series is classed as biochemical. The note with it: Aβ preincubated 24 hours at 37° C., then DMPD 50 μM. On the procedure:
as §2, §3, §4, §5

For series [6], the system named is SK-N-BE(2)-M17 (M17) cell line. The series can be described thus: Cell viability (MTT) of Aβ40- or metal-Aβ40-treated M17 cells. The format is cell-based, human. Particulars: Aβ:metal:ligand 10:10:20 μM, 24 hours, relative to the untreated cells. Here is the method: The human neuroblastoma, i.e., SK-N-BE(2)-M17 (M17) cell line, was purchased from the American Type Culture Collection (ATCC, Manassas, Va., USA).
The cell line was maintained in media containing Minimum Essential Media (MEM; GIBCO, Life Technologies, Grand Island, N.Y., USA) and Ham's F12K Kaighn's Modification Media (F12K; GIBCO) at a ratio of 1:1, 10% (v/v) fetal bovine serum (FBS; Atlanta Biologicals, Flowery Branch, Ga., USA), 100 U/mL penicillin (GIBCO), and […] streptomycin (GIBCO). The cells were grown and maintained at a temperature of 37° C. in a humidified atmosphere with 5% CO2.
After completing the incubation at a temperature of 37° C. for 24 hours, 25 μL of [3-(4,5-dimethylthiazol-2-yl)-2,5-diphenyltetrazolium bromide; 5 mg/mL in phosphate buffered saline (PBS), pH7.4, GIBCO] (MTT) was added to each well, and then, the plates were incubated at a temperature of 37° C. for 4 hours.
Formazan produced by the cells was dissolved in a solution containing N,N-dimethylformamide (DMF, 50% v/v aq, pH 4.5) and sodium dodecyl sulfate (SDS, 20% w/v) overnight at room temperature. Subsequently, absorbance at 600 nm was measured on a microplate reader.

For series [7], the system named is Aβ40. The series is described as follows: Cerebral Aβ40 by ELISA in 5×FAD mice. The series is classed as in vivo, mouse. Particulars: 1 mg/kg/day intraperitoneal, 30 days.
From the text: as §1
(§6) Cerebral Aβ peptides were quantified by the enzyme-linked immunosorbent assay (ELISA).

For series [8], the target named is T1, Aβ40. The series can be described thus: Isothermal titration calorimetry (ITC). The format is binding. Here is the method: The ligand solution (10 μL) was titrated into the Aβ40 solution (1.4 mL) at 25° C. over 1 second with 25 injections with a constant interval of […] a 250 μL syringe rotating at 310 rpm. In a control experiment, the identical titrant solution was injected into the same buffer used with Aβ40 to measure the heat of dilution.
A reasonable heat of binding value was calculated by subtracting the heat of dilution value from the overall heat change. Titration data were analyzed with the MicroCal Origin (v. 7.0). The values of Ka (association constant) and […] each ligand upon binding to Aβ40 was determined from a proper fitting model. The binding curves were best fit to a sequential binding model with three binding sites. The values of −TΔS and ΔG were calculated from the Gibb's free energy relationship [(ΔG=ΔH−TΔS; ΔG=−RT ln(Ka)].

A short description of series [9]: Gross appearance and body weight of 5×FAD mice. The series is classed as in vivo, mouse. The note with it: at conclusion of 30-day treatment, 1 mg/kg/day intraperitoneal.
From the text: as §1

For series [10], the system named is Aβ42. The series can be described thus: Cerebral Aβ42 by ELISA in 5×FAD mice. The format is in vivo, mouse. The note with it: 1 mg/kg/day intraperitoneal, 30 days.
From the text: as §1, §6

Series [11] concerns Aβ40/Aβ42. The series is described as follows: Inhibition of formation of Aβ aggregation (gel electrophoresis/Western blot, TEM). The format is biochemical. On the procedure: Aβ40 or Aβ42 was dissolved in ammonium hydroxide (NH4OH, 1% v/v aq), and then, aliquoted, lyophilized overnight, and stored at a temperature of −80° C. For experiments described herein, a stock solution of Aβ was prepared by dissolving lyophilized peptide in 1% NH4OH (10 μL) and diluted with deionized distilled water (ddH2O).
The concentration of Aβ peptides in the solution was determined by measuring the absorbance of the solution at 280 nm (E=1450 M^−1 cm^−1 for Aβ40; and ε=1490 M^−1 cm^−1 for Aβ42).
as §2, §3
Each sample (10 μL) was separated on a 10-20% Tris-tricine gel (Invitrogen, Grand island, NY, USA), and the protein samples obtained therefrom were transferred onto a nitrocellulose membrane which was blocked with bovine serum albumin (BSA, 3% w/v, Sigma-Aldrich, St. Louis, Mo., USA) in Tris-buffered saline containing 0.1% Tween-20 (TBS-T; 1.00 mM Tris base, pH 8.0, 1.50 mM NaCl) at room temperature for 2 hours. […]

For series [12], the system named is 5×FAD mice. The series is described as follows: Morris water maze test in 5×FAD mice. The format is in vivo, mouse. On the procedure: Three hours after the final Morris water maze test, to confirm the performance of long-term memory retention, the probe trials, where the escape platform was removed, was carried out, and the mice located its previous position in the water for 60 seconds.

The mark [13] stands for this setting: sequential binding model, three sites, 25° C., pH 7.4.
[14] abbreviates: probe trial 60 seconds, three hours after final test, vs vehicle-treated 5×FAD mice.

T1 sequence (P05067 672-711 limits assumed): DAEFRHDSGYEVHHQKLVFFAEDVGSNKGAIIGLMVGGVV
T3 sequence (P05067 672-713): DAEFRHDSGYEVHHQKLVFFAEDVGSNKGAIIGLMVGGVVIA
T2 sequence (P05067 672-713 limits assumed): as the sequence (P05067 672-713) above

As for `O=C1C=CC(=O)C=C1` [BQ, benzoquinone], the “binding to Aβ40 (MS)” value in series [1] (identical conditions as DMPD) is “binds to Aβ40”. In addition, in [1] (ligand 50 μM, Aβ40 25 μM, 24 hours), the “mass added to Aβ40 on ligand treatment (mass shift)” value amounted to 104.1±0.1 Da.

As to `CN(C)c1ccc(N)cc1` [DMPD, N,N-dimethyl-p-phenylenediamine], in [2], the “reduction of load of APP/Aβ-immunoreactive 4G8-stained amyloid plaques” value is listed as “ca. 23%” and the “reduction of load of Congo red-stained amyloid plaques” value is around 20%. In addition, the “effect on Cu(II) in Cu(II)-loaded Aβ42 fibrils” value in series [3] is listed as “complete reduction of Cu(II)”. Also, the “reactivity toward Aβ42 aggregates” value in series [4] is given as “less reactivity toward Aβ42 aggregates”. Besides, the “transformation of preformed metal-free and metal-Aβ40/Aβ42 aggregates” value in [5] was “significant effects on the transformation; also recorded: modified the formed Aβ aggregates to relatively smaller and less structured Aβ aggregates”. Further, in series [6], the increase of viability was 10-20%. In addition, in [7], the “reduction of FA-soluble Aβ40” value is “ca. 50%” and the “reduction of SDS-soluble Aβ40” value is listed as “ca. 68%”. In addition, the “decrease of total level of Aβ40 (PBS-, SDS- and FA-soluble)” value in series [7] (vs vehicle-treated) is on record as “ca. 65%”. For the same molecule, in series [8] (calculated, ΔG=ΔH−TΔS), the TΔS1 was 6.81 ± 0.201 kcal/mol, the TΔS2 is 7.48 ± 0.0884 kcal/mol and the TΔS3 is -2.13 ± 0.155 kcal/mol. In addition, in series [8] (calculated, ΔG=−RT ln(Ka)), the ΔG1 was -7.43 ± 0.184 kcal/mol and the ΔG2 was -6.33 ± 0.0382 kcal/mol. For the same molecule, the ΔH1 in series [8] (sequential binding model, site 1) was -0.629 ± 0.0837 kcal/mol. This molecule had a ΔH2 in series [8] (sequential binding model, site 2) of 1.14 ± 0.801 kcal/mol. In addition, the ΔH3 in [8] (sequential binding model, site 3) is -8.37 ± 1.52 kcal/mol. In [8] (setting [13]), the Ka1 is reported as 2.85 ± 0.88 × 10^5 M^−1, the Ka2 was 4.34 ± 2.88 × 10^4 M^−1 and the Ka3 is 3.73 ± 2.22 × 10^4 M^−1. Further, in series [9], the “gross appearance or body weight versus vehicle-treated mice” value is reported as “no significant difference”. For the same molecule, in [1] (IM-MS, 4+ charge state), the “ion mobility arrival time of Aβ40 complex versus apo state” value was “significantly decreased”. For the same molecule, in [10], the “reduction of FA-soluble Aβ42” value is around 32% and the “reduction of SDS-soluble Aβ42” value was around 67%. In addition, the “decrease of total level of Aβ42 (PBS-, SDS- and FA-soluble)” value in [10] (vs vehicle-treated) is around 47%. The “effect on formation of metal-free or metal-induced Aβ aggregates” value in [11] (DMPD 50 μM, Aβ 25 μM, with or without CuCl2/ZnCl2 25 μM, 37° C., 24 hours, aerobic) is given as “inhibited the formation of Aβ aggregates”. Further, in series [11] (anaerobic condition), the “modulation of Aβ aggregation under anaerobic condition” value is reported as “not observed”. In [12] (final five days of DMPD treatment, hidden platform), the “spatial learning and memory capability” value is recorded as “prominently improved”. For the same molecule, in series [12] (setting [14]), the “time in the target quadrant (NW) in probe trial” value is reported as “significantly more time” and the “time to reach the platform area in probe trial” value was “distinguishably less time”.
